Series [1] relates to normal human peripheral blood leucocytes. To be noted: concentration range 0.5 ug/mL to 10 ug/mL; cited from earlier work.
Series [2] relates to human leukemia Jurkat cells. To be noted: cited from earlier work.
The subject of series [3] is Becap37 (human breast cancer cell). In words: MTT growth inhibition of human solid tumor cells, 72 hours. To be noted: compared with berbamine itself. The format is cell-based. From the text: (§1) Human solid tumor cell lines: HepG2 (human hepatocellular carcinoma, HCC), A549 (human lung cancer), MCF-7 (breast cancer), PANC-1 (pancreatic cancer), PC-3 (prostate cancer), MG63 (osteosarcomas), AGS (gastric cancer), Huh7 (human hepatoma cell), Becap37 (human breast cancer cell), Hela (human cervical cancer cell), RKO (human colon adenocarcinoma cell), SW620 (human colon adenocarcinoma cells), SW480 (human colon cancer cell), MGC 803 (human gastric cancer cell).
(§2) Obtaining 4000 well-growing human solid tumor cells and inoculating them into wells of a 96-well cell culture plate. The culture medium is DMEM High Glucose cell culture medium containing 10% fetal bovine serum. After adding the berbamine derivatives of different concentrations and mixing uniformly, the plate is placed in a carbon dioxide cell incubator (5% CO2) at 37° C. and incubated for 72 hours. Then the viable cell concentration is determined by the MTT method, and the cell viability (%) after drug treatment is calculated. In this experiment, the cell viability of control group (not treated with any compound) is set as 100%.

Series [4] deals with HepG2 (human hepatocellular carcinoma, HCC). The description is as above. The format is cell-based. To be noted: compared with berbamine itself.
From the text: as §1, §2

Series [5] concerns MGC 803 (human gastric cancer cell). The series is described as above. The note with it: compared with berbamine itself. The format is cell-based.
From the text: as §1, §2

A further series has as its system MCF-7 (breast cancer). Described as above. The note with it: compared with berbamine itself. The format is cell-based.
From the text: as §1, §2

The subject of another series is MG63 (osteosarcomas). Described as above. The note with it: compared with berbamine itself. It is filed as cell-based.
From the text: as §1, §2

Series [6] concerns PANC-1 (pancreatic cancer). The series is described as above. It is filed as cell-based. To be noted: compared with berbamine itself.
From the text: as §1, §2

Series [7] concerns K562/adr (drug-resistant chronic myeloid leukemia). As to the kind of experiment: MTT growth inhibition of leukemia cells, 72 hours. The format is cell-based, human. The note with it: compared with berbamine itself. From the text:
(§3) Leukemia cell lines: human K562 leukemia cell line (chronic myeloid leukemia, CML), K562/adr (drug-resistant chronic myeloid leukemia (CML), NB4 (acute promyelocytic leukemia, AML), Kasumi-1 (acute myeloid leukemia M2 type, AML-M2), Jurkat (acute lymphoblastic leukemia, ALL), H9 (acute lymphoblastic leukemia, ALL).
(§4) Obtaining 6000 well-growing leukemia cells and inoculating them into wells of a 96-well cell culture plate. The culture medium is the 1640 cell culture medium containing 10% fetal bovine serum. After adding of the berbamine derivatives of different concentrations and mixing uniformly, the plate is placed in a carbon dioxide cell incubator (5% CO2) at 37° C. and incubated for 72 hours. Then the viable cell concentration is determined by the MTT method.

Series [8] concerns RPMI8226 (multiple myeloma). As to the kind of experiment: MTT growth inhibition of multiple myeloma cells, 72 hours. The format is cell-based, human. The note with it: compared with berbamine itself. How it is done:
Multiple myeloma and lymphoma cell lines: U266 (multiple myeloma), RPMI8226 (multiple myeloma), and DOHH2 (lymphoma).
Obtaining 6000 well-growing aforesaid tumor cells and inoculating them into wells of a 96-well cell culture plate. The culture medium is the 1640 cell culture medium containing 10% fetal bovine serum. After adding the berbamine derivatives of different concentrations and mixing uniformly, the plate is placed in a carbon dioxide cell incubator (5% CO2) at 37° C. and incubated for 72 hours. Then the viable cell concentration is determined by the MTT method.

For series [9], the system named is human K562 leukemia cell line (chronic myeloid leukemia, CML). In words: MTT growth inhibition of leukemia cells, 72 hours. To be noted: compared with berbamine itself. The format is cell-based.
From the text: as §3, §4

The next series concerns the target CaM (Homo sapiens, UniProt P0DP23). The note with it: relative to berbamine; cited from earlier work.
The subject of series [10] is red cell membrane CaM-independent Ca^2++Mg^2+ ATPase. The note with it: relative to berbamine; cited from earlier work.

Like-named read-outs stand apart in the source and are kept apart here.

`COc1cc2c3cc1Oc1c(OC)c(OC)cc4c1[C@@H](Cc1ccc(O)c(c1)Oc1ccc(cc1)C[C@@H]3N(C)CC2)N(C)CC4` [BBM, 6,6′,7-trimethoxy-2,2′-dimethylberbaman-12-ol]: the “cytotoxicity on normal human peripheral blood leucocytes” value in series [1] is “no obvious cytotoxicity”. The cell viability rate in [2] (drug concentration 0.5 ug/mL) is listed as 93.69%; in series [2] (drug concentration 10 ug/mL) it was 14.85%.
Regarding `COc1cc2c3cc1Oc1c(OC)c(OC)cc4c1[C@@H](Cc1ccc(OCCCCCCCN5C(=O)c6ccccc6C5=O)c(c1)Oc1ccc(cc1)C[C@@H]3N(C)CC2)N(C)CC4` [BS-BE-003, 12-O-(7-(1,3-dioxo-isoindolin-2-yl)-heptyl)-berbamine], in [3], the “improvement of anti-Becap37 (human breast cancer cell) activity” value is about 5 fold. Also, the “improvement of anti-HepG2 (human hepatocellular carcinoma, HCC) activity” value in [4] was about 5 fold. Moreover, in series [5], the “improvement of anti-MGC 803 (human gastric cancer cells) activity” value is recorded as about 7 fold. Besides, the “improvement of anti-MCF-7 (breast cancer) activity” value in the series with MCF-7 (breast cancer) is on record as about 6 fold. Further, in the series on MG63 (osteosarcomas), the “improvement of anti-MG63 (osteosarcomas) activity” value is given as about 8 fold. Besides, the “improvement of anti-PANC-1 (pancreatic cancer) activity” value in [6] is listed as “more than 6 fold”. For the same molecule, the “improvement of anti-K562/adr (drug-resistant chronic myelogenous leukemia) activity” value in series [7] is on record as “more than 6 fold”. For the same molecule, in [8], the “improvement of anti-RPMI8226 (multiple myeloma) cell activity” value is on record as about 6 fold. Further, in [9], the “improvement of anti-human K562 chronic myelogenous leukemia activity” value was “more than 5 fold”.
For the molecule `CCOCCCCOc1ccc2cc1Oc1ccc(cc1)C[C@H]1c3cc(c(OC)cc3CCN1C)Oc1c(OC)c(OC)cc3c1[C@@H](C2)N(C)CC3` [EBB, [O-(4-ethoxy)-butyl]-berbamine], the “specific coefficient as CaM antagonist, higher than that of berbamine” value on CaM is given as 6.5 fold.
As to O-Dansyl berbamine [DB], in series [10], the “inhibitory activity on red cell membrane CaM-independent Ca^2++Mg^2+ ATPase, stronger than that of berbamine” value is reported as 25 fold.

Source of the values: patent US9249137B2, “Dicarboximide derivatives of berbamine, the preparation and use thereof” (HANGZHOU BENSHENG PHARMACEUTICAL CO., LTD., priority 2010, dated 2016).
